# Reference: ChEMBL document CHEMBL3856212, “Synthesis, anti-proliferative and genotoxicity studies of 6-chloro-5-(2-substituted-ethyl)-1,3-dihydro-2H-indol-2-ones and 6-chloro-5-(2-chloroethyl)-3-(alkyl/ary-2-ylidene)indolin-2-ones” (Eur J Med Chem, 2016)
# What was measured:
# [1] = Cytotoxicity against human MOLT4 cells assessed as growth inhibition after 48 hrs by SRB assay; assay type: functional; conditions: MOLT-4, 48 h; for CC50: read-out: LD50 (the source's name)
# [2] = Cytotoxicity against human EKVX cells assessed as growth inhibition after 48 hrs by SRB assay; assay type: functional; conditions: for CC50: read-out: LD50 (the source's name)
# [3] = Cytotoxicity against human HCT15 cells assessed as growth inhibition after 48 hrs by SRB assay; assay type: functional; conditions: HCT-15, 48 h; for CC50: read-out: LD50 (the source's name)
# [4] = Cytotoxicity against human SW620 cells assessed as growth inhibition after 48 hrs by SRB assay; assay type: functional; conditions: SW-620, 48 h; for CC50: read-out: LD50 (the source's name)
# [5] = Cytotoxicity against human SF268 cells assessed as growth inhibition after 48 hrs by SRB assay; assay type: functional; conditions: SF-268, 48 h; for CC50: read-out: LD50 (the source's name)
# [6] = Cytotoxicity against human SNB19 cells assessed as growth inhibition after 48 hrs by SRB assay; assay type: functional; conditions: SNB-19, 48 h; for CC50: read-out: LD50 (the source's name)
# [7] = Cytotoxicity against human LOXIMVI cells assessed as growth inhibition after 48 hrs by SRB assay; assay type: functional; conditions: LOX IMVI; for CC50: read-out: LD50 (the source's name)
# [8] = Cytotoxicity against human M14 cells assessed as growth inhibition after 48 hrs by SRB assay; assay type: functional; conditions: M14, 48 h; for CC50: read-out: LD50 (the source's name)
# [9] = Cytotoxicity against human MDA-MB-435 cells assessed as growth inhibition after 48 hrs by SRB assay; assay type: functional; conditions: MDA-MB-435, 48 h, read-out: LD50 (the source's name)
# [10] = Cytotoxicity against human UACC257 cells assessed as growth inhibition after 48 hrs by SRB assay; assay type: functional; conditions: UACC-257, 48 h; for CC50: read-out: LD50 (the source's name)
# [11] = Cytotoxicity against human OVCAR5 cells assessed as growth inhibition after 48 hrs by SRB assay; assay type: functional; conditions: OVCAR-5, 48 h; for CC50: read-out: LD50 (the source's name)
# [12] = Cytotoxicity against human OVCAR8 cells assessed as growth inhibition after 48 hrs by SRB assay; assay type: functional; conditions: OVCAR-8, 48 h; for CC50: read-out: LD50 (the source's name)
# [13] = Cytotoxicity against human SKOV3 cells assessed as growth inhibition after 48 hrs by SRB assay; assay type: functional; conditions: SK-OV-3, 48 h; for CC50: read-out: LD50 (the source's name)
# [14] = Cytotoxicity against human 786-0 cells assessed as growth inhibition after 48 hrs by SRB assay; assay type: functional; conditions: 786-0, 48 h; for CC50: read-out: LD50 (the source's name)
# [15] = Cytotoxicity against human PC3 cells assessed as growth inhibition after 48 hrs by SRB assay; assay type: functional; conditions: PC-3, 48 h; for CC50: read-out: LD50 (the source's name)
# [16] = Cytotoxicity against human DU145 cells assessed as growth inhibition after 48 hrs by SRB assay; assay type: functional; conditions: DU-145, 48 h; for CC50: read-out: LD50 (the source's name)
# [17] = Cytotoxicity against human Hs 578T cells assessed as growth inhibition after 48 hrs by SRB assay; assay type: functional; conditions: for CC50: read-out: LD50 (the source's name)
# [18] = Cytotoxicity against human T47D cells assessed as growth inhibition after 48 hrs by SRB assay; assay type: functional; conditions: for CC50: read-out: LD50 (the source's name)
# [19] = Cytotoxicity against human EKVX cells assessed as assessed as growth inhibition at 10^-5 M after 48 hrs by SRB assay relative to control; assay type: functional; conditions: read-out: GI
# [20] = Cytotoxicity against human NCI-H460 cells assessed as assessed as growth inhibition at 10^-5 M after 48 hrs by SRB assay relative to control; assay type: functional; conditions: NCI-H460, 48 h, read-out: GI
# [21] = Cytotoxicity against human HT-29 cells assessed as assessed as growth inhibition at 10^-5 M after 48 hrs by SRB assay relative to control; assay type: functional; conditions: HT-29, 48 h, read-out: GI
# [22] = Cytotoxicity against human SF268 cells assessed as assessed as growth inhibition at 10^-5 M after 48 hrs by SRB assay relative to control; assay type: functional; conditions: SF-268, 48 h, read-out: GI
# [23] = Cytotoxicity against human SNB19 cells assessed as assessed as growth inhibition at 10^-5 M after 48 hrs by SRB assay relative to control; assay type: functional; conditions: SNB-19, 48 h, read-out: GI
# [24] = Cytotoxicity against human MDA-MB-435 cells assessed as assessed as growth inhibition at 10^-5 M after 48 hrs by SRB assay relative to control; assay type: functional; conditions: MDA-MB-435, 48 h, read-out: GI
# [25] = Cytotoxicity against human UACC62 cells assessed as assessed as growth inhibition at 10^-5 M after 48 hrs by SRB assay relative to control; assay type: functional; conditions: UACC-62, 48 h, read-out: GI
# [26] = Cytotoxicity against human RXF393 cells assessed as assessed as growth inhibition at 10^-5 M after 48 hrs by SRB assay relative to control; assay type: functional; conditions: RXF 393, 48 h, read-out: GI
# [27] = Cytotoxicity against human MCF7 cells assessed as assessed as growth inhibition at 10^-5 M after 48 hrs by SRB assay relative to control; assay type: functional; conditions: MCF7, 48 h, read-out: GI
# [28] = Cytotoxicity against human MDA-MB-231 cells assessed as assessed as growth inhibition at 10^-5 M after 48 hrs by SRB assay relative to control; assay type: functional; conditions: MDA-MB-231, 48 h, read-out: GI
# [29] = Cytotoxicity against human T47D cells assessed as assessed as growth inhibition at 10^-5 M after 48 hrs by SRB assay relative to control; assay type: functional; conditions: read-out: GI
# [30] = Cytotoxicity against human MDA-MB-468 cells assessed as assessed as growth inhibition at 10^-5 M after 48 hrs by SRB assay relative to control; assay type: functional; conditions: MDA-MB-468, 48 h, read-out: GI
# Mus musculus = species on record: Mus musculus; assay: Genotoxicity in mouse EAC cells at 500 uM after 24 hrs by micronucleus assay (reference value: 3.5 +/- 0.30%); assay type: toxicity, cell-based; conditions: ehrlich
# [31] = Induction of apoptosis in mouse EAC cells at 250 uM after 24 hrs by acridine orange dye-based fluorescence microscopy (reference value: 0.66 +/- 0.33%); assay type: cell-based; conditions: ehrlich
# [32] = Induction of apoptosis in mouse EAC cells at 375 uM after 24 hrs by acridine orange dye-based fluorescence microscopy (reference value: 0.66 +/- 0.33%); assay type: cell-based; conditions: ehrlich
# [33] = Induction of apoptosis in mouse EAC cells at 500 uM after 24 hrs by acridine orange dye-based fluorescence microscopy (reference value: 0.66 +/- 0.33%); assay type: cell-based; conditions: ehrlich
compound,measurement,setting,value
O=C1Cc2cc(CCn3ccnc3)c(Cl)cc2N1,GI50,[1],5670 nM
same,TGI,[1],> 1000 nM
same,CC50,[1],> 1000 nM
same,GI50,[2],6130 nM
same,TGI,[2],> 1000 nM
same,CC50,[2],> 1000 nM
same,GI50,[3],7070 nM
same,TGI,[3],> 1000 nM
same,CC50,[3],> 1000 nM
same,GI50,[4],5020 nM
same,TGI,[4],> 1000 nM
same,CC50,[4],> 1000 nM
same,GI50,[5],1210 nM
same,TGI,[5],> 1000 nM
same,CC50,[5],> 1000 nM
same,GI50,[6],2210 nM
same,TGI,[6],> 1000 nM
same,CC50,[6],> 1000 nM
same,GI50,[7],8530 nM
same,TGI,[7],> 1000 nM
same,CC50,[7],> 1000 nM
same,GI50,[8],3460 nM
same,TGI,[8],3980 nM
same,CC50,[8],> 1000 nM
same,CC50,[9],> 1000 nM
same,CC50,[10],> 1000 nM
same,GI50,[11],4480 nM
same,TGI,[11],> 1000 nM
same,CC50,[11],> 1000 nM
same,GI50,[12],2410 nM
same,TGI,[12],> 1000 nM
same,CC50,[12],> 1000 nM
same,GI50,[13],1810 nM
same,TGI,[13],> 1000 nM
same,CC50,[13],> 1000 nM
same,GI50,[14],1000 nM
same,TGI,[14],> 1000 nM
same,CC50,[14],> 1000 nM
same,GI50,[15],3560 nM
same,TGI,[15],> 1000 nM
same,CC50,[15],> 1000 nM
same,GI50,[16],8020 nM
same,TGI,[16],> 1000 nM
same,CC50,[16],> 1000 nM
same,GI50,[17],8730 nM
same,TGI,[17],9920 nM
same,CC50,[17],> 1000 nM
same,GI50,[18],7560 nM
same,TGI,[18],> 1000 nM
same,CC50,[18],> 1000 nM
same,inhibition of growth at 10 µM,[19],72.7%
same,inhibition of growth at 10 µM,[20],52.6%
same,inhibition of growth at 10 µM,[21],1.22%
same,inhibition of growth at 10 µM,[22],27.6%
same,inhibition of growth at 10 µM,[23],28.5%
same,inhibition of growth at 10 µM,[24],72%
same,inhibition of growth at 10 µM,[25],29.8%
same,inhibition of growth at 10 µM,[26],42%
same,inhibition of growth at 10 µM,[27],77.1%
same,inhibition of growth at 10 µM,[28],54.5%
same,inhibition of growth at 10 µM,[29],5.51%
same,inhibition of growth at 10 µM,[30],69.2%
same,Activity,Mus musculus,4.83%
same,Activity,[31],0.5%
same,Activity,[32],0.66%
same,Activity,[33],0.53%
O=C1Cc2cc(CCN3CCNCC3)c(Cl)cc2N1,GI50,[1],1000 nM
same,TGI,[1],> 1000 nM
same,CC50,[1],> 1000 nM
same,GI50,[2],3580 nM
same,TGI,[2],> 1000 nM
same,CC50,[2],> 1000 nM
same,GI50,[3],6230 nM
same,TGI,[3],> 1000 nM
same,CC50,[3],> 1000 nM
same,GI50,[4],4970 nM
same,TGI,[4],> 1000 nM
same,CC50,[4],> 1000 nM
same,GI50,[5],1270 nM
same,TGI,[5],> 1000 nM
same,CC50,[5],> 1000 nM
same,GI50,[6],2370 nM
same,TGI,[6],> 1000 nM
same,CC50,[6],> 1000 nM
same,GI50,[7],1000 nM
same,TGI,[7],> 1000 nM
same,CC50,[7],> 1000 nM
same,GI50,[8],3020 nM
same,TGI,[8],2650 nM
same,CC50,[8],> 1000 nM
same,CC50,[9],> 1000 nM
same,GI50,[10],6520 nM
same,TGI,[10],> 1000 nM
same,CC50,[10],> 1000 nM
same,GI50,[11],7920 nM
same,TGI,[11],> 1000 nM
same,CC50,[11],> 1000 nM
same,GI50,[12],3680 nM
same,TGI,[12],> 1000 nM
same,CC50,[12],> 1000 nM
same,GI50,[13],1000 nM
same,TGI,[13],> 1000 nM
same,CC50,[13],> 1000 nM
same,GI50,[14],1000 nM
same,TGI,[14],> 1000 nM
same,CC50,[14],> 1000 nM
same,GI50,[15],9830 nM
same,TGI,[15],> 1000 nM
same,CC50,[15],> 1000 nM
same,GI50,[16],1990 nM
same,TGI,[16],> 1000 nM
same,CC50,[16],> 1000 nM
same,GI50,[17],1570 nM
same,TGI,[17],> 1000 nM
same,CC50,[17],> 1000 nM
same,GI50,[18],2910 nM
same,TGI,[18],> 1000 nM
same,CC50,[18],> 1000 nM
same,inhibition of growth at 10 µM,[19],75.2%
same,inhibition of growth at 10 µM,[20],25.7%
same,inhibition of growth at 10 µM,[21],11.9%
same,inhibition of growth at 10 µM,[22],27.9%
same,inhibition of growth at 10 µM,[23],42.4%
same,inhibition of growth at 10 µM,[24],82%
same,inhibition of growth at 10 µM,[25],44.8%
same,inhibition of growth at 10 µM,[26],60.1%
same,inhibition of growth at 10 µM,[27],74.9%
same,inhibition of growth at 10 µM,[28],64.1%
same,inhibition of growth at 10 µM,[29],17.3%
same,inhibition of growth at 10 µM,[30],89%
same,Activity,Mus musculus,6.26%
same,Activity,[31],1.06%
same,Activity,[32],1.33%
same,Activity,[33],0.86%
